Consider 1 compound from US20240300975A1, “DIMETHYL-SUBSTITUTED THIAZOLOLACTAM COMPOUND AND USE THEREOF” (D3 Bio (Wuxi) Co., Ltd., priority 2021, published 2024).

Usually clearance stands for the volume of plasma or blood freed of the substance per unit of time. Higher therefore signals efficient removal. For orientation: bioavailability means dose-corrected exposure relative to a reference, in per cent. A word on the half-life: it is the time needed for the level to fall by half in the phase considered. A higher half-life goes with slow decline. What is called Cmax is the highest concentration seen after dosing.

Series [1] concerns human plasma albumin. The experiment in a line: Plasma protein binding (PPB), human plasma. The following applies: ultracentrifugation, 37° C., 4 h. It is filed as in vitro ADME. On the procedure:
(§1) The binding degree of the assay compound to human/mouse/rat/canine/monkey plasma albumin was studied.
(§2) • 1) Matrix preparation: on the day of the assay, plasma was thawed in cold water and centrifuged at 3220 rpm for 5 min to remove all clots. The pH of the resulting plasma was measured and adjusted to 7.4±0.1 using 1% phosphoric acid or 1N sodium hydroxide as needed. • 2) Dilution procedure for the assay compound: the assay compound was dissolved in dimethyl sulfoxide (DMSO) to prepare stock solutions with concentrations of 10 mM and 2 mM, respectively. A 40 μM working solution was prepared by diluting 2 μL of stock solution (2 mM) with 98 μL of DMSO. A 400 μM working solution of the control compound was prepared by diluting 10 μL of stock solution with 240 μL of DMSO. The working solution of the compound (5 μL) was mixed well with a blank matrix (995 μL) at a ratio of 1:200 to prepare a loading matrix.
(§3) • a) An equal volume of 30 μL of loading matrix (n=2) was transferred to a sample collection plate to prepare a time 0 (TO) sample for residue determination. The sample was immediately matched with the corresponding blank buffer to a final volume of 60 μL, and the volume ratio of plasma to buffer in each well was 1:1. […] The mixture was centrifuged at 4000 rpm for 20 min and 100 μL of supernatant from each sample was analyzed by LC-MS/MS.

The test system of series [2] is rat plasma albumin. The experiment in a line: Plasma protein binding (PPB), rat plasma. The class given is in vitro ADME. The following applies: ultracentrifugation, 37° C., 4 h. On the procedure: as §1, §2, §3
Series [3] concerns mouse plasma albumin. Put plainly: Plasma protein binding (PPB), mouse plasma. The class given is in vitro ADME. The following applies: ultracentrifugation, 37° C., 4 h. How it is done: as §1, §2, §3
Series [4] is described as follows: In vivo PK study in mice. The settings on record: female BALB/c mice. The text has this:
Female BALB/c mice were used as assay animals to determine the blood concentration of the compound and evaluate the pharmacokinetic behavior after a single administration.
Four healthy adult female BALB/c mice were selected, wherein 2 mice were in an intravenous injection group and 2 mice were in an oral group. The vehicle in the intravenous injection group was 5% DMSO+95% (20% HP-β-CD). The compound to be assayed was mixed with an appropriate amount of vehicle for intravenous injection, vortexed and sonicated to prepare a clear solution of 0.5 mg/mL. The clear solution was filtered by a microporous membrane, and then ready for use. The vehicle in the oral group was 5% DMSO+95% (20% HP-β-CD). The compound to be assayed was mixed with the vehicle, vortexed and sonicated to prepare a solution of 0.3 mg/mL. Mice were administered 1 mg/kg intravenously or 3 mg/kg orally, and then whole blood was collected for a certain period. Plasma was prepared. The drug concentration was analyzed by LC-MS/MS method, and the pharmacokinetic parameters were calculated by Phoenix WinNonlin software (Pharsight, USA).

The test system of series [5] is human melanoma A375 cells. Put plainly: In vivo efficacy in mouse model of human melanoma A375. The following applies: for TGI: PO, BID, day 21, A375 xenograft nude mouse. How it is done:
The anti-tumor effect of WX001 was evaluated using a subcutaneous xenograft tumor model of human melanoma A375 cells in nude mouse.
• Species: mouse • Strain: BALB/c nude mouse • Age: 6-8 weeks old • Gender: female • Body weight: 18-22 grams • Supplier: Vital River Laboratory Animal Technology Co., Ltd.
• 1) Assay cells and culture: Human melanomaA375 cells were cultured in monolayer in vitro. The culture conditions were DMEM medium plus 10% fetal bovine serum, and a 37° C. 5% CO2 incubator. Routine digestion with trypsin-EDTA was performed twice a week for passage. When the cell saturation was 80%-90% and the amount reached the requirement, the cells were harvested, counted, and inoculated; • 2) Tumor tissue inoculation and grouping: 0.1 mL (5×10^5) of A375 cells were subcutaneously inoculated into the right armpit of each mouse. When the average tumor volume reached 170 mm^3, the animals were randomly divided into 4 groups and the administration was started.
• 3) Daily observation of assay animals: The development of this assay protocol and any modifications were evaluated and approved by the Institutional Animal Care and Use Committee (IACUC). The use and welfare of assay animals were carried out in accordance with the regulations of the Association for Assessment and Accreditation of Laboratory Animal Care (AAALAC). Animals were monitored daily for health and death. Routine examinations included observation of tumor growth and the effects of drug treatment on the animals' daily behavior such as behavioral activities, food and water intake (visual inspection only), weight changes (weight measurements twice a week), appearance signs or other abnormalities. Animal deaths and side effects in each group were recorded based on the number of animals in each group.
• a) Vehicle group: 5% DMSO+95% (20% HP-β-CD). • b) Assay compound group: A quantitative amount of the assay compound was weighed in a formulation bottle. A corresponding volume of DMSO was added and then the mixture was vortexed to obtain a clear solution. A corresponding volume of 20% HP-β-CD was added and then the mixture was vortexed to obtain a homogeneous suspension.
• a) Tumor diameter was measured twice a week with a vernier caliper. The calculation formula of tumor volume was: TV=1/2×a×b^2, wherein a and b represent the long and short diameters of tumor, respectively; • b) The tumor-inhibitory efficacy of the compound was evaluated by TGI (%). TGI (%) reflected the inhibition rate of tumor growth. TGI (%) was calculated as follows: TGI (%)={[1−(average tumor volume at the end of administration of a treatment group−average tumor volume at the beginning of administration of this treatment group)]/(average tumor volume at the end of treatment in a solvent control group−average tumor volume at the beginning of treatment in the solvent control group)}×100%.
In general terms: A xenograft is tissue or cells of one species grown in another, often human tumour cells in immunodeficient mice.

Consider `Cc1cccc(CN2C(=O)c3nc(-c4nc(Nc5ccnn5C)ncc4C)sc3C2(C)C)n1` [WX001], for which the “Plasma protein binding rate (unbound %)” value in series [1] came out at 6.1%; in series [2], 3.8%; in series [3] it was 7.2%. Moreover, the “Oral DNAUC (AUCPO/Dose)” value in series [4] (3 mg/kg orally) is recorded as 787.18 nM · h/mpk. Further, the clearance in series [4] (mouse, plasma, iv, 1 mg/kg intravenously) is 27.5 mL/min/kg. For the same compound, in series [4] (mouse, plasma, iv, 1 mg/kg intravenously, read-out: Vdss), the Vd came out at 1.6 L/kg. For the same compound, in series [4] (mouse, plasma, oral, 1 mg/kg intravenously / 3 mg/kg orally, read-out: F % (oral bioavailability)), the bioavailability was 62%. The half-life in series [4] (mouse, plasma, single administration) was 1.29 h. The compound further displayed a Cmax in series [4] (mouse, po, 3 mg/kg orally, plasma) of 2120 nM. Also, the TGI in series [5] (5 mg/kg) came to 36%; in series [5] (10 mg/kg), 81%; in series [5] (20 mg/kg), 104%. For the same compound, in series [5] (5, 10, 20 mg/kg PO BID, during the administration), the tolerance result is “the tolerance is good”. Moreover, the “body weight of animals” value in series [5] (5, 10, 20 mg/kg PO BID, to the 21st day) is given as “did not decrease significantly”.
